Measurements published in patent US9120805B2, “Substituted pyrrolo[1,2-A]pyrazin-1-ones and pyrazolo[1,5-A]pyrazin-4-ones as inhibitors of tankyrase and poly(ADP-ribose)polymerase activity” (Merck Patent GmbH, priority 2012, dated 2015).

What follows are compounds tested against T1, GST-tagged Tnks-2 (873-1166 aa) (Homo sapiens, UniProt Q9H2K2) (assay: TNKS2 activity ELISA (autoparsylation assay)). Conditions: not given.
T1 construct: GST-tagged Tnks-2 (873-1166 aa, prepared in-house); made in house
Format: biochemical
Description: (§1) Description of the TNKS1 and TNKS2 ELISA Assay
(§2) Biochemical Activity Testing of TNKS 1 and 2: Activity ELISA (Autoparsylation Assay)
(§3) For analysis of autoparsylation activity of TNKS 1 and 2 an activity ELISA is performed: In the first step GST tagged TNKS is captured on a Glutathione coated plate. Then the activity assay with biotinylated NAD is performed in the absence/presence of the compounds. During the enzymatic reaction GST tagged TNKS transfers biotinylated ADP-ribose to itself from biotinylated NAD as co-substrate. For the detection streptavidin-HRP conjugate is added that binds to the biotinylated TNKS and is thereby captured to the plates. The amount of biotinylated resp. autoparsylated TNKS is detected with a luminescence substrate for HRP. The level of the luminescence signal correlates directly with the amount of autoparsylated TNKS and therefore with activity of TNKS.
(§4) The activity ELISA is performed in 384 well Glutathione coated microtiter plates (Express capture Glutathione coated plate, Biocat, Heidelberg, Germany). The plates are pre-equilibrated with PBS. Then the plates are incubated with 50 μl 20 ng/well GST-tagged Tnks-1 (1023-1327 aa, prepared in-house), respectively GST-tagged Tnks-2 (873-1166 aa, prepared in-house) in assay buffer (50 mM HEPES, 4 mM Mg-chloride, 0.05% Pluronic F-68, 2 mM DTT, pH 7.7) overnight at 4° C. The plates are washed 3 times with PBS-Tween-20. The wells are blocked by incubation at room temperature for 20 minutes with 50 μl blocking buffer (PBS, 0.05% Tween-20, 0.5% BSA). Afterwards the plates are washed 3 times with PBS-Tween-20. The enzymatic reaction is performed in 50 μl reaction solution (50 mM HEPES, 4 mM Mg-chloride, 0.05% Pluronic F-68, 1.4 mM DTT, 0.5% DMSO, pH 7.7) with 10 μM bio-NAD (Biolog, Life science Inst., Bremen, Germany) as co-substrate in the absence or presence of the test compound (10 dilution concentrations) for 1 hour at 30° C. The reaction is stopped by 3 times washing with PBS-Tween-20. For the detection 50 μl of 20 ng/μl Streptavidin, HRP conjugate (MoBiTec, Göttingen, Germany) in PBS/0.05% Tween-20/0.01% BSA are added and the plates are incubated for 30 minutes at room temperature. After three times washing with PBS-Tween-20 50 μl of SuperSignal ELISA Femto Maximum sensitivity substrate solution (ThermoFisherScientific (Pierce), Bonn, Germany) are added. Following a 1 minute incubation at room temperature luminescence signals are measured with an Envision multimode reader (Perkin Elmer LAS Germany GmbH) at 700 nm. The full value used is the inhibitor-free reaction. The pharmacological zero value used is XAV-939 (Tocris) in a final concentration of 5 μM. The inhibitory values (1050) are determined using either the program Symyx Assay Explorer® or Condosseo® from GeneData.

T1 sequence (Q9H2K2 873-1166): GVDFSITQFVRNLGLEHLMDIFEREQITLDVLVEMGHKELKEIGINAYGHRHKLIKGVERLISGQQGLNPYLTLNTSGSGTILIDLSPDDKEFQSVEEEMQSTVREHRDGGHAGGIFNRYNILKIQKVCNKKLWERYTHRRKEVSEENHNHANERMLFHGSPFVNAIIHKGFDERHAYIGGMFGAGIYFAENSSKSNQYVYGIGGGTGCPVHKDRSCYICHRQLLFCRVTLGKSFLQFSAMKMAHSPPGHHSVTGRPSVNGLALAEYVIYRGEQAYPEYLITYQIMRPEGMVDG

Compound | IC50 [nM]
CC(C)(O)c1ccc(-c2cn3c(F)ccc3c(=O)[nH]2)cc1 [Compound A84, 6-fluoro-3-[4-(1-hydroxy-1-methyl-ethyl)-phenyl]-2H-pyrrolo[1,2-a]pyrazin-1-one] | < 300
O=c1[nH]c(-c2ccc(C3(O)CCCC3)cc2)cn2cc(F)cc12 [Compound A85, 7-fluoro-3-[4-(1-hydroxy-cyclopentyl)-phenyl]-2H-pyrrolo[1,2-a]pyrazin-1-one] | < 300
CC(C)(C)c1ccc(-c2cn3cc(C#N)cc3c(=O)[nH]2)cc1 [Compound A92, 3-(4-tert-butyl-phenyl)-1-oxo-1,2-dihydro-pyrrolo[1,2-a]pyrazine-7-carbonitrile] | < 300
Cc1ccc2c(=O)[nH]c(-c3ccc(C(C)(C)O)cc3)cn12 [Compound A95] | < 300
O=c1[nH]c(-c2ccc(C3(O)COC3)cc2)cn2cccc12 [Compound A110] | < 300

These compounds were tested against T2, His-tagged Parp-1 (Homo sapiens, UniProt P09874) (assay: PARP-1 autoparsylation assay (HTRF)). Conditions: PARP-1 autoparsylation HTRF assay.
T2 construct: purchased Enzo Life Sciences GmbH
Format: biochemical
Description: Description of the PARP1 Assay
Biochemical Activity Testing of PARP-1: Autoparsylation Assay
The autoparsylation assay is run in two steps: the enzymatic reaction in which
His-tagged Parp-1 transfers biotinylated ADP-ribose/ADP-ribose to itself from biotinylated NAD/NAD as co-substrate and the detection reaction where a time resolved FRET between cryptate labelled anti-His antibody bound to the His tag of the enzyme and Xlent® labelled-streptavidin bound the biotin-parsylation residue is analysed. The autoparsylation activity is detectable directly via the increase in HTRF signal.
The autoparsylation assay is performed as 384-well HTRF® (Cisbio, Codolet, France) assay format in Greiner low volume nb 384-well microtiter plates. 35 nM His-tagged Parp-1 (human, recombinant, Enzo Life Sciences GmbH, Lörrach, Germany) and a mixture of 125 nM bio-NAD (Biolog, Life science Inst., Bremen, Germany) and 800 nM NAD as co-substrate are incubated in a total volume of 6 μl (100 mM Tris/HCl, 4 mM Mg-chloride, 0.01% IGEPAL® CA630, 1 mM DTT, 0.5% DMSO, pH 8, 13 ng/μl activated DNA (BPS Bioscience, San Diego, US)) in the absence or presence of the test compound (10 dilution concentrations) for 150 min at 23° C. The reaction is stopped by the addition of 4 μl of the Stop/detection solution (70 nM SA-Xlent® (Cisbio, Codolet, France), 2.5 nM Anti-His-K® (Eu-labelled anti-His, Cisbio, Codolet, France) in 50 mM HEPES, 400 mM KF, 0.1% BSA, 20 mM EDTA, pH 7.0). After 1 h incubation at room temperature the HTRF is measured with an Envision multimode reader (Perkin Elmer LAS Germany GmbH) at excitation wavelength 340 nm (laser mode) and emission wavelengths 615 nm and 665 nm. The ratio of the emission signals is determined. The full value used is the inhibitor-free reaction. The pharmacological zero value used is Olaparib (LClabs, Woburn, US) in a final concentration of 1 μM. The inhibitory values (IC50) are determined using either the program Symyx Assay Explorer® or Condosseo® from GeneData.

T2 sequence (P09874 whole entry): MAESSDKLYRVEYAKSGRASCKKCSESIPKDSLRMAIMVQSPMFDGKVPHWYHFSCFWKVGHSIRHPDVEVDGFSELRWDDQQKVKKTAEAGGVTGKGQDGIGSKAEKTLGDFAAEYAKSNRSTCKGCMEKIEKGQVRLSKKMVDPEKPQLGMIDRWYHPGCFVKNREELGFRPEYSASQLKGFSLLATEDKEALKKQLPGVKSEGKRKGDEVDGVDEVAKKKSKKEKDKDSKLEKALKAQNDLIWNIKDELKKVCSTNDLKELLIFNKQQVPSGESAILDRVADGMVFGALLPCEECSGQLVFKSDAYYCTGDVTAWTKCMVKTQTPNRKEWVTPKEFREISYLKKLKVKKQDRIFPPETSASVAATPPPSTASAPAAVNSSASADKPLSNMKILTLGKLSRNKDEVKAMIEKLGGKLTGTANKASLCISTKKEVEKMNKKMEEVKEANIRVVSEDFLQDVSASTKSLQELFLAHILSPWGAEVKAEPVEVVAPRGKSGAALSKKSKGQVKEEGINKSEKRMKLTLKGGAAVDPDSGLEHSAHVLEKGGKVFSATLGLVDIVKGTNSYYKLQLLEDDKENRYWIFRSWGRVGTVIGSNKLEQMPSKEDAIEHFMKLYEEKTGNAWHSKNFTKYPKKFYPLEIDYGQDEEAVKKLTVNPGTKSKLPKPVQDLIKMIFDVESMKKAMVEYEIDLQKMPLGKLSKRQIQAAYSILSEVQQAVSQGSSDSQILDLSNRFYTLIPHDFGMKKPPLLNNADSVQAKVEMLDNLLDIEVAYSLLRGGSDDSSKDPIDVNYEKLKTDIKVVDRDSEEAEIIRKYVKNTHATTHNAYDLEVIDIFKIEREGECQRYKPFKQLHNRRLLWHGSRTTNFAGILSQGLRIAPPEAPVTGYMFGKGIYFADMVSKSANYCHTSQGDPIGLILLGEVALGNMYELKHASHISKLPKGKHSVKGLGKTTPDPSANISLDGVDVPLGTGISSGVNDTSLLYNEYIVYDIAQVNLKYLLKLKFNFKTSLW

Compound | IC50 [nM]
CC(C)(O)c1ccc(-c2cn3c(F)ccc3c(=O)[nH]2)cc1 [Compound A84, 6-fluoro-3-[4-(1-hydroxy-1-methyl-ethyl)-phenyl]-2H-pyrrolo[1,2-a]pyrazin-1-one] | 300 to 3000
O=c1[nH]c(-c2ccc(C3(O)CCCC3)cc2)cn2cc(F)cc12 [Compound A85, 7-fluoro-3-[4-(1-hydroxy-cyclopentyl)-phenyl]-2H-pyrrolo[1,2-a]pyrazin-1-one] | 300 to 3000

The compounds below were run against T3, GST-tagged Tankyrase-2 (873-1166 aa) (Homo sapiens, UniProt Q9H2K2) (assay: Tankyrase 2 autoparsylation assay (HTRF enzyme assay)). Conditions: not given.
T3 construct: GST-tagged Tankyrase-2 (873-1166 aa)
Format: biochemical
Description: (§5) Biochemical Activity Testing of Tankyrase 1 and 2: Autoparsylation Assay
(§6) The autoparsylation assay is run in two steps: the enzymatic reaction in which GST-tagged Tankyrase-1, resp Tankyrase-2 transferred biotinylated ADP-ribose to itself from biotinylated NAD as co-substrate and the detection reaction where a time resolved FRET between cryptate labelled anti-GST bound to the GST tag of the enzyme and Xlent® labelled-streptavidin bound the biotin-parsylation residue is analysed. The autoparsylation activity was detectable directly via the increase in HTRF signal.
(§7) The autoparsylation assay is performed as 384-well HTRF® (Cisbio, Codolet, France) assay format in Greiner low volume nb 384-well microtiter plates and is used for high throughput screen. 250 nM GST-tagged Tankyrase-1 (1023-1327 aa), respectively about 250 nM GST-tagged Tankyrase-2 (873-1166 aa) and 5 μM bio-NAD (Biolog, Life science Inst., Bremen, Germany) as co-substrate are incubated in a total volume of 5 μl (50 mM HEPES, 4 mM Mg-chloride, 0.05% Pluronic F-68, 1.4 mM DTT, 0.5% DMSO, pH 7.7) in the absence or presence of the test compound (10 dilution concentrations) for 90 min at 30° C. The reaction is stopped by the addition of 1 μl 50 mM EDTA solution. 2 μl of the detection solution (1.6 μM SA-Xlent® (Cisbio, Codolet, France), 7.4 nM Anti-GST-K® (Eu-labelled anti-GST, Cisbio, Codolet, France) in 50 mM HEPES, 800 mM KF, 0.1% BSA, 20 mM EDTA, 0.1% CHAPS, pH 7.0) are added. After 1 h incubation at room temperature the HTRF is measured with an Envision multimode reader (Perkin Elmer LAS Germany GmbH) at excitation wavelength 340 nm (laser mode) and emission wavelengths 615 nm and 665 nm. The ratio of the emission signals is determined. The full value used is the inhibitor-free reaction. The pharmacological zero value used is XAV-939 (Tocris) in a final concentration of 5 μM. The inhibitory values (IC50) are determined using either the program Symyx Assay Explorer® or Condosseo® from GeneData.

T3 sequence (Q9H2K2 873-1166): as the sequence (Q9H2K2 873-1166) above

Compound | IC50 [nM]
Cc1cc2c(=O)[nH]c(-c3ccc(N4CCCC4)cc3)cn2n1 [Compound A37, 2-methyl-6-(4-pyrrolidin-1-yl-phenyl)-5H-pyrazolo[1,5-a]pyrazin-4-one] | 300 to 3000
CC(C)(C)c1ccc(-c2cn3cc(C#N)cc3c(=O)[nH]2)cc1 [Compound A92, 3-(4-tert-butyl-phenyl)-1-oxo-1,2-dihydro-pyrrolo[1,2-a]pyrazine-7-carbonitrile] | 300 to 3000
O=c1[nH]c(-c2ccc(C3(O)COC3)cc2)cn2cccc12 [Compound A110] | 300 to 3000

These compounds were tested on tankyrase 1/2 (assay: Cellular inhibition of Tankyrase: increase of Axin2 level in DLD1 cells (Luminex)). Conditions: 24 hours, read-out: EC50 tankyrase 1/2 (cell assay).
Format: cell-based
Description: Measurement of Cellular Inhibition of Tankyrase
Since Tankyrases have been described to modulate cellular level of Axin2 (Huang et al., 2009; Nature) the increase of Axin2 level is used as read-out for determination of cellular inhibition of Tankyrases in a Luminex based assay.
Cells of the colon carcinoma cell line DLD1 are plated in 96 well plates with 1.5×10^4 cells per well. Next day, cells are treated with a serial dilution of test compound in seven steps as triplicates with a final DMSO concentration of 0.3%. After 24 hours, cells are lysed in lysis buffer (20 mM Tris/HCl pH 8.0, 150 mM NaCl, 1% NP40, 10% Glycerol) and lysates are cleared by centrifugation through a 96 well filter plate (0.65 μm). Axin2 protein is isolated from cell lysates by incubation with a monoclonal anti-Axin2 antibody (R&D Systems #MAB6078) that is bound to fluorescent carboxybeads. Then, bound Axin2 is specifically detected with a polyclonal anti-Axin2 antibody (Cell Signaling #2151) and an appropriate PE-fluorescent secondary antibody. The amount of isolated Axin2 protein is determined in a Luminex^200 machine (Luminex Corporation) according to the manufacturer's instruction by counting 100 events per well. Inhibition of Tankyrase by test compounds results in higher levels of Axin2 which directly correlates with an increase of detectable fluorescence. As controls cells are treated with solvent alone (neutral control) and with a Tankyrase reference inhibitor IWR-2 (3E-06 M) which refers as control for maximum increase of Axin2. For analysis, the obtained data are normalized against the untreated solvent control and fitted for determination of the EC50 values using the Assay Explorer software (Accelrys).

Compound | EC50 [nM]
Cc1cc2c(=O)[nH]c(-c3ccc(N4CCCC4)cc3)cn2n1 [Compound A37, 2-methyl-6-(4-pyrrolidin-1-yl-phenyl)-5H-pyrazolo[1,5-a]pyrazin-4-one] | 300 to 3000
CC(C)(C)c1ccc(-c2cn3cc(C#N)cc3c(=O)[nH]2)cc1 [Compound A92, 3-(4-tert-butyl-phenyl)-1-oxo-1,2-dihydro-pyrrolo[1,2-a]pyrazine-7-carbonitrile] | 3000 to 50000
Cc1ccc2c(=O)[nH]c(-c3ccc(C(C)(C)O)cc3)cn12 [Compound A95] | < 300
O=c1[nH]c(-c2ccc(C3(O)COC3)cc2)cn2cccc12 [Compound A110] | 300 to 3000

What follows are compounds tested against T4, GST-tagged Tankyrase-1 (1023-1327 aa) (Homo sapiens, UniProt O95271) (assay: Tankyrase 1 autoparsylation assay (HTRF enzyme assay)). Conditions: not given.
T4 construct: GST-tagged Tankyrase-1 (1023-1327 aa)
Format: biochemical
Description: as §5, §6, §7

T4 sequence (O95271 1023-1327): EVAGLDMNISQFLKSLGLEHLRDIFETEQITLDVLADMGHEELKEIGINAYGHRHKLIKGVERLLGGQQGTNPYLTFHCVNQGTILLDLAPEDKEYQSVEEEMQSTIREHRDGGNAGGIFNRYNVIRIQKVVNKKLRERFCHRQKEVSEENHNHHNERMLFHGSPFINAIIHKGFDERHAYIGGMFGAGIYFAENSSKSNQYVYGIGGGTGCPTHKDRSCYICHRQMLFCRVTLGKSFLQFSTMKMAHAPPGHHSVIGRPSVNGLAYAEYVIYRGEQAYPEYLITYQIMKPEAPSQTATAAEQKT

Compound | IC50 [nM]
Cc1cc2c(=O)[nH]c(-c3ccc(N4CCCC4)cc3)cn2n1 [Compound A37, 2-methyl-6-(4-pyrrolidin-1-yl-phenyl)-5H-pyrazolo[1,5-a]pyrazin-4-one] | < 300
CC(C)(C)c1ccc(-c2cn3cc(C#N)cc3c(=O)[nH]2)cc1 [Compound A92, 3-(4-tert-butyl-phenyl)-1-oxo-1,2-dihydro-pyrrolo[1,2-a]pyrazine-7-carbonitrile] | < 300
O=c1[nH]c(-c2ccc(C3(O)COC3)cc2)cn2cccc12 [Compound A110] | < 300

These compounds were tested against T5, GST-tagged Tnks-1 (1023-1327 aa) (Homo sapiens, UniProt O95271) (assay: TNKS1 activity ELISA (autoparsylation assay)). Conditions: not given.
T5 construct: GST-tagged Tnks-1 (1023-1327 aa, prepared in-house); made in house
Format: biochemical
Description: as §1, §2, §3, §4

T5 sequence (O95271 1023-1327): as above

Compound | IC50 [nM]
Cc1cc2c(=O)[nH]c(-c3ccc(N4CCCC4)cc3)cn2n1 [Compound A37, 2-methyl-6-(4-pyrrolidin-1-yl-phenyl)-5H-pyrazolo[1,5-a]pyrazin-4-one] | < 300
CC(C)(O)c1ccc(-c2cn3c(F)ccc3c(=O)[nH]2)cc1 [Compound A84, 6-fluoro-3-[4-(1-hydroxy-1-methyl-ethyl)-phenyl]-2H-pyrrolo[1,2-a]pyrazin-1-one] | < 300
O=c1[nH]c(-c2ccc(C3(O)CCCC3)cc2)cn2cc(F)cc12 [Compound A85, 7-fluoro-3-[4-(1-hydroxy-cyclopentyl)-phenyl]-2H-pyrrolo[1,2-a]pyrazin-1-one] | < 300
CC(C)(C)c1ccc(-c2cn3cc(C#N)cc3c(=O)[nH]2)cc1 [Compound A92, 3-(4-tert-butyl-phenyl)-1-oxo-1,2-dihydro-pyrrolo[1,2-a]pyrazine-7-carbonitrile] | < 300
O=c1[nH]c(-c2ccc(C3(O)COC3)cc2)cn2cccc12 [Compound A110] | < 300
